Tests used:
[1] = target: T1, α-glucosidase enzyme (EC3.2.1.20) (Saccharomyces cerevisiae, UniProt P53341); experiment: biochemical; details: for inhibition at 1 µg/mL / inhibition at 10 µg/mL / inhibition at 100 µg/mL / inhibition at 1000 µg/mL: read-out: % inhibition of α-glucosidase
T1 construct: purchased Sigma-Aldrich
Excerpt: The α-glucosidase enzyme is mainly expressed in the small intestine and catalyzes the breakdown of carbohydrates into glucose units by cleaving the glucosidic bonds. α-Glucosidase blockers are the first-line drugs for the treatment of non-insulin-dependent DM by suppressing carbohydrate hydrolysis and consequently retarding glucose absorption into the bloodstream and reducing postprandial hyperglycemia. α-Glucosidase is, thus, considered to be an attractive pharmaceutical target for the treatment of […] via control of the blood glucose levels. Accordingly, there is a continuous need to develop a potential class of α-glucosidase inhibitors. Toward this aim, we explored the potency of the synthesized compounds to inhibit the activity of α-glucosidase. We examined the inhibitory activity of the synthesized compounds following the reported assay by Peytam et al.. Thus, the compounds at different concentrations (1000, 100, 10, and 1 µg/mL) were incubated with α-glucosidase and subsequently […] was added and the absorbance was monitored at 405 nm. […] To further investigate the structural aspects of 1,3-thiohydantoin scaffold, a substitution at the N1-position with the methyl-proponate group was performed. […] Nevertheless, it has adverse gastrointestinal effects including diarrhea and flatulence. Thus, the discovery of a novel class of potent antidiabetic agents is urgently demanded.
An ELISA reader was used to assess the inhibition of α-glucosidase by 1,3,5-trisubstituted-2-thioxoimidazolidin-4-ones derivatives at various doses (1000, 100, 10, and 1 µg/mL) according to Peytam et al.. […] Then, the substrate (25 µL, 4 mM) was added to the mentioned mixture and allowed to incubate at 37 °C for 20 min. Finally, the change in absorbance at 405 nm was monitored using a Cytation 3 hybrid microplate reader (BioTek, Winooski, VT, USA). […] GraphPad prism 6.0 was used to calculate the IC50 values of the investigated compounds from the nonlinear regression curve (Systat Software, Inc. Tools for Science) (https://www.graphpad.com/scientific-software/prism/ (accessed on 1 September 2022)).

α-amylase enzyme = target: T2, α-amylase enzyme (Sus scrofa, UniProt P00690); experiment: α-amylase inhibition assay (DNSA, absorbance 595 nm); type: biochemical
T2 sequence (P00690 16-511): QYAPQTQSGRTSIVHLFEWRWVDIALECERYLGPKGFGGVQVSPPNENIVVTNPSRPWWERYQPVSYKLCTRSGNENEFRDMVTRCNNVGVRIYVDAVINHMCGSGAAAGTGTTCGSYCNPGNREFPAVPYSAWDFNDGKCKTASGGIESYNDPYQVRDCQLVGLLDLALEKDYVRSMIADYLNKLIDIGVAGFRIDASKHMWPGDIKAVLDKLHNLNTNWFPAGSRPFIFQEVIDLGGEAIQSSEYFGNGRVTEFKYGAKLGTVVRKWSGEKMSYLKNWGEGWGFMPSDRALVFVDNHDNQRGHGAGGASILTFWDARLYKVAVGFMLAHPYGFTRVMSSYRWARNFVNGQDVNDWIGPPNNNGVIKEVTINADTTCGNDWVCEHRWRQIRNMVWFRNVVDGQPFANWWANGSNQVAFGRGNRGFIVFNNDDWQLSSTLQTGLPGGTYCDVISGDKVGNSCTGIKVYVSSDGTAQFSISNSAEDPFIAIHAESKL
Excerpt: Furthermore, pancreatic α-amylase mediates the activity of glycoproteins in the small intestine membrane, such as sucrase-isomaltase and sodium/glucose cotransporter 1, via binding with N-linked oligosaccharides. […] However, attempts to find novel antagonists with enhanced effectiveness and minimum adverse effects are still worth investigating. In this regard, we examined the inhibitory activity of the synthesized compounds 4a–b, 5a–b, and 7a–b toward α-amylase activity. Therefore, compounds at different concentrations (100, 10, 1, and 0.1 µg/mL) were mixed with the α-amylase enzyme and subsequently 3,5-dinitrosalicylic acid was added and the absorption was assessed at 595 nm. […] To date, several potent natural and synthetic antagonists with dual inhibitory activities toward α-amylase and α-glucosidase enzymes have been reported which succeeded in being applied in clinics.
The inhibitory activity of synthesized 1,3,5-trisubstituted-2-thioxoimidazolidin-4-ones derivatives toward α-amylase activity was determined by ELISA analysis according to Bernfeld and Colowick. The α-amylase enzyme was provided by Sigma-Aldrich and the stock solution was prepared in DMSO (10 mg/10 mL). […] Briefly, α-amylase enzyme (100 mg, 1 unit per mL) was mixed in 100 mL of a 20 mM sodium phosphate buffer (pH 6.9). […] After incubation, 100 μL of the DNSA reagent was added to this mixture, and then heated in a water bath at 85 °C for 15 min. The reaction mixture was taken from the water bath, cooled, and the absorbance value at 595 nm was assessed. Individual blanks were created in order to adjust the background absorbance. A control experiment was carried out following the same protocol using DMSO. The α-amylase enzyme activity and percentage of inhibition were determined using the following formula: % Inhibition=control−test/control×100

[2] = DPPH free radical scavenging assay
Excerpt: The antioxidant capability of compounds 5a and 7a was estimated utilizing the DPPH (2,2-diphenyl-1- picrylhydrazyl) scavenging assay to assess the free radical scavenger activity. DPPH is a stable free radical substrate with a purple color which upon reaction with an antioxidant compound, converts into 1,1-diphenyl-2-picryl hydrazine, a […] compound. The DPPH assay is widely applied for the investigation of superoxide radical scavenging activity. In this regard, compounds 5a and 7a were incubated at different concentrations (3.12, 6.25, 12.5, 25, 50, 100, and 200 µg/mL) with DPPH substrate and the absorption was assessed by ELISA at 510 nm. In our investigations, Trolox, a water-soluble analogue of vitamin E, was applied as a standard antioxidant reference drug. […] Further, Qamar et al. synthesized and evaluated the antioxidant activity of some novel N3-substituted-2-thiohydantoins.
According to Valko et al., the ELISA approach was used to analyze the free-radical DPPH scavenging activity of compounds (5a and 7a) at different concentrations (3.12, 6.25, 12.5, 25, 50, 100, and 200 µg/mL). The DPPH assay assesses the hydrogen-donating activity and thus provides an evaluation of the antioxidant activity via estimating the DPPH free-radical scavenging activity. The color intensity of the reaction mixture was measured after a purple-colored stable free radical (DPPH) was reduced into the yellow-colored diphenylpicryl hydrazinem. Briefly, 200 µL of different concentrations of compounds 5a and 7a were mixed with 50 µL of DPPH (0.659 mM) solution, and the mixture was incubated at 25 °C for 20 min. The absorbance of the reaction mixture was estimated after incubation at 510 nm. In our investigations, trolox was employed as standard reference drug. A control reaction was performed, and the inhibitory efficiency of DPPH radical-scavenging activity was determined using the equation below: % Inhibition = (A0 − A1)/A0 × 100 (1) where A0 is absorbance of […] and A1 is the absorbance of the compound.

T1 sequence (P53341 whole entry): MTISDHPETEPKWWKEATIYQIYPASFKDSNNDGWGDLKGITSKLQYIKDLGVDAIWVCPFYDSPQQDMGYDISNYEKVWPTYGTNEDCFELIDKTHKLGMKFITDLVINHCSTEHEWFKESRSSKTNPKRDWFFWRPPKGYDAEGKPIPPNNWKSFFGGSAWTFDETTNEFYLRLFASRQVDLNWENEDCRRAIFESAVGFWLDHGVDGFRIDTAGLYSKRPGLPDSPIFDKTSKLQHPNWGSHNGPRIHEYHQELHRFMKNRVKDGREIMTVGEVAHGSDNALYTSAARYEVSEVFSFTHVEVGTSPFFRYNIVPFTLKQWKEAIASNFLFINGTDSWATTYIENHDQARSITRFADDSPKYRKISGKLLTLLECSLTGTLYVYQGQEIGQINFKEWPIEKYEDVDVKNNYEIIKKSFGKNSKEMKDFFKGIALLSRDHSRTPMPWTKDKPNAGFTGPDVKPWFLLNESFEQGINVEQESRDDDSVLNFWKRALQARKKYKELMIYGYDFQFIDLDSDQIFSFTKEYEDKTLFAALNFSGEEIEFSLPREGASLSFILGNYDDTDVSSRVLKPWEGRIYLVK

SMILES | inhibition at 1 µg/mL [1] [%] | inhibition at 10 µg/mL [1] [%] | inhibition at 100 µg/mL [1] [%] | inhibition at 1000 µg/mL [1] [%] | % inhibition of α-amylase (α-amylase enzyme; 0.1 µg/mL (log -1)) [%] | % inhibition of α-amylase (α-amylase enzyme; 1 µg/mL (log 0)) [%] | % inhibition of α-amylase (α-amylase enzyme; 10 µg/mL (log 1)) [%] | % inhibition of α-amylase (α-amylase enzyme; 100 µg/mL (log 2)) [%] | IC50 [1] [µM] | melting point [°C] | %RSA (DPPH radical scavenging activity) ([2]; 3.12 µg/mL) [%] | %RSA (DPPH radical scavenging activity) ([2]; 6.25 µg/mL) [%] | %RSA (DPPH radical scavenging activity) ([2]; 12.5 µg/mL) [%] | %RSA (DPPH radical scavenging activity) ([2]; 25 µg/mL) [%] | %RSA (DPPH radical scavenging activity) ([2]; 50 µg/mL) [%] | %RSA (DPPH radical scavenging activity) ([2]; 100 µg/mL) [%] | %RSA (DPPH radical scavenging activity) ([2]; 200 µg/mL) [%] | DPPH free radical scavenging IC50 ([2]; n = 4) [µg/mL]
C[C@H]1O[C@H](O[C@H]2[C@H](O)[C@@H](O)[C@@H](O[C@H]3[C@H](O)[C@@H](O)C(O)O[C@@H]3CO)O[C@@H]2CO)[C@H](O)[C@@H](O)[C@@H]1N[C@H]1C=C(CO)[C@@H](O)[C@H](O)[C@H]1O (stereo partly shown) [Acarbose, reference compound] | 31.8 | 58.4 | 76.9 | 88.4 | 37.2 | 58.3 | 80.3 | 92.1 |  |  |  |  |  |  |  |  |  | 
C/C(=N\N1C(=O)/C(=C/c2ccccc2O)NC1=S)c1ccccc1O [Compound 4a, 5-(2-Hydroxybenzylidene)-3-(2-hydroxyphenylethylidene)-amino-2-thioxoimidazolidin-4-one] | 24.5 | 44.9 | 62.6 | 83.1 |  |  |  |  | 57.1 | 256 |  |  |  |  |  |  |  | 
C/C(=N\N1C(=O)/C(=C/c2cc(Br)ccc2O)NC1=S)c1ccccc1O [Compound 4b, 5-(5-Bromo-2-hydroxybenzylidene)-3-(2-hydroxyphenylethylidene)-amino-2-thioxoimidazolidin-4-ones] | 20.4 | 36.4 | 58.9 | 84.7 |  |  |  |  | ~72.4 | 263 |  |  |  |  |  |  |  | 
COC(=O)CCN1C(=S)N(/N=C(\C)c2ccccc2O)C(=O)/C1=C/c1cc(Br)ccc1O [Compound 5b, Methyl [5-(5-Bromo-2-hydroxybenzylidene)-4-oxo-3-(2-hydroxyphenylethylidene)amino-2-thioxoimidazolidin-1-yl] propionate] | 27.6 | 50.3 | 71.4 | 87.4 |  |  |  |  | 21.3 | 192 |  |  |  |  |  |  |  | 
COC(=O)CCN1C(=S)N(/N=C(\C)c2ccccc2O)C(=O)/C1=C/c1cc(Br)ccc1OC(C)=O [Compound 7b, Methyl [5-(5-bromo-2-acetoxybenzylidene)-4-oxo-3-(2-hydroxyphenylethylidene)amino-2-thioxoimidazolidin-1-yl] propionate] | 28 | 47.8 | 70.4 | 86.5 |  |  |  |  | 21.8 | 172 |  |  |  |  |  |  |  | 
Cc1c(C)c2c(c(C)c1O)CCC(C)(C(=O)O)O2 (stereo not shown) [Trolox, reference compound] |  |  |  |  |  |  |  |  |  |  | 11.3811 | 20.2046 | 32.4808 | 47.4425 | 63.2992 | 82.6087 | 89.0026 | 58.09

From PMC9785777, “Antidiabetic Potential of Novel 1,3,5-Trisubstituted-2-Thioxoimidazloidin-4-One Analogues: Insights into α-Glucosidase, α-Amylase, and Antioxidant Activities” (Pharmaceuticals, 2022)
